Structures are written as SMILES. pIC50: −log10 of the molar value. Structures can show the parent of a compound that is named as a salt. Where only a bound is given, the exact number is not on record here.

The test system of this assay is ΔG/SEAP/HCV E1E2. As to the kind of experiment: Effect of test substance on cell infection with HCV pseudotype virus (SEAP reporter assay in HepG2 cells). The settings on record: Hepatitis C virus. The class given is cell-based.
In general, pIC50 refers to the negative decadic logarithm of the IC50, by convention in mol/L. High values mean a small IC50, low ones a large IC50. `COc1cc(OC)cc(-c2nn(-c3cc(N4CC[C@H](O)C4)ccc3C(F)(F)F)c(=O)c3c2CCN3CC(N)=O)c1` [Example 28, 2-{4-(3,5-dimethoxy-phenyl)-6-[5-((S)-3-hydroxy-pyrrolidin-1-yl)-2-trifluoromethyl-phenyl]-7-oxo-2,3,6,7-tetrahydro-pyrrolo[2,3-d]pyridazin-1-yl}-acetamide] had a pIC50 greater than 7.00. Molecule `O=c1c2c(c(C3CCCC3)nn1-c1cc(N3CC[C@H](O)C3)ccc1C(F)(F)F)CCC2` [Example 1-19, 4-cyclopentyl-2-[5-((S)-3-hydroxy-pyrrolidin-1-yl)-2-trifluoromethyl-phenyl]-2,5,6,7-tetrahydro-cyclopenta[d]pyridazin-1-one] showed a negative logarithm of the IC50 (pIC50) of 5.00 to 7.00. The figure for `Cc1ccc(-c2nn(-c3cc(N4CC[C@H](O)C4)ccc3C(F)(F)F)c(=O)c3c2CCC3)cc1` [Example 114, 2-[5-((S)-3-hydroxy-pyrrolidin-1-yl)-2-trifluoromethyl-phenyl]-4-p-tolyl-2,5,6,7-tetrahydro-cyclopenta[d]pyridazin-1-one] is greater than 7.00; for `COC(=O)CN1CCc2c(-c3cc(OC)cc(OC)c3)nn(-c3cc(N4CC[C@H](O)C4)ccc3C(F)(F)F)c(=O)c21` [Example 26, {4-(3,5-dimethoxy-phenyl)-6-[5-((S)-3-hydroxy-pyrrolidin-1-yl)-2-trifluoromethyl-phenyl]-7-oxo-2,3,6,7-tetrahydro-pyrrolo[2,3-d]pyridazin-1-yl}-acetic acid methyl ester] it is greater than 7.00.

For the molecule `Cc1cc(C)cc(-c2nn(-c3cc(-c4cccnn4)ccc3C(F)(F)F)c(=O)c3c2CCC3)c1` [Example 8, 4-(3,5-dimethyl-phenyl)-2-(5-pyridazin-3-yl-2-trifluoromethyl-phenyl)-2,5,6,7-tetrahydro-cyclopenta[d]pyridazin-1-one], the pIC50 was greater than 7.00. As for `COc1cc(OC)cc(-c2nn(-c3cc(N4CC[C@@H](O)C4)ccc3C(F)(F)F)c(=O)c3c2CCC3)c1` [Example 21, 4-(3,5-dimethoxy-phenyl)-2-[5-((R)-3-hydroxy-pyrrolidin-1-yl)-2-trifluoromethyl-phenyl]-2,5,6,7-tetrahydro-cyclopenta[d]pyridazin-1-one], the negative logarithm of the IC50 (pIC50) was greater than 7.00. The figure for `COc1cc(OC)cc(-c2nn(-c3cc(NCCN(C)C(=O)OC(C)(C)C)ccc3C(F)(F)F)c(=O)c3c2CCC3)c1` [Example 156, (2-{3-[4-(3,5-dimethoxy-phenyl)-1-oxo-1,5,6,7-tetrahydro-cyclopenta[d]pyridazin-2-yl]-4-trifluoromethyl-phenylamino}-ethyl)-methyl-carbamic acid tert-butyl ester] is 5.00 to 7.00; for `Cc1cc(C)cc(-c2nn(-c3cc(-c4cccnn4)ccc3C(F)(F)F)c(=O)c3c2CC(C)N3)c1` (stereo not shown) [Example 12, 4-(3,5-dimethyl-phenyl)-2-methyl-6-(5-pyridazin-3-yl-2-trifluoromethyl-phenyl)-1,2,3,6-tetrahydro-pyrrolo[2,3-d]pyridazin-7-one] it is greater than 7.00. Molecule `COc1cc(OC)cc(-c2nn(-c3c(Cl)cccc3Cl)c(=O)c3c2CCC3)c1` [Example 87, 2-(2,6-dichloro-phenyl)-4-(3,5-dimethoxy-phenyl)-2,5,6,7-tetrahydro-cyclopenta[d]pyridazin-1-one] showed a pIC50 greater than 7.00. Turning to `O=c1c2c(c(-c3ccc(C(F)(F)F)cc3)nn1-c1cc(N3CC[C@H](O)C3)ccc1C(F)(F)F)CCC2` [Example 75, 2-[5-((S)-3-hydroxy-pyrrolidin-1-yl)-2-trifluoromethyl-phenyl]-4-(4-trifluoromethyl-phenyl)-2,5,6,7-tetrahydro-cyclopenta[d]pyridazin-1-one], the negative logarithm of the IC50 (pIC50) was 5.00 to 7.00. In the case of `COc1cc(OC)cc(-c2nn(-c3cc(NCC4CC4)ccc3C(F)(F)F)c(=O)c3c2CCC3)c1` [Example 141, 2-[5-(cyclopropylmethyl-amino)-2-trifluoromethylphenyl]-4-(3,5-dimethoxy-phenyl)-2,5,6,7-tetrahydro-cyclopenta[d]pyridazin-1-one], the pIC50 was greater than 7.00. Molecule `COc1cc(OC)cc(-c2nn(-c3cc(NCC4CCCC4)ccc3C(F)(F)F)c(=O)c3c2CCC3)c1` [Example 148, 2-[5-(cyclopentylmethyl-amino)-2-trifluoromethylphenyl]-4-(3,5-dimethoxy-phenyl)-2,5,6,7-tetrahydro-cyclopenta[d]pyridazin-1-one] showed a negative-log IC50 (pIC50) of 5.00 to 7.00.

Molecule `COc1cc(OC)cc(-c2nn(-c3cccc(N4CC[C@H](O)C4)c3)c(=O)c3c2CCN3)c1` [Example 52, 4-(3,5-dimethoxy-phenyl)-6-[3-((S)-3-hydroxy-pyrrolidin-1-yl)-phenyl]-1,2,3,6-tetrahydro-pyrrolo[2,3-d]pyridazin-7-one] had a pIC50 of 5.00 to 7.00. In the case of `COc1cccc(-c2nn(-c3cc(N4CC[C@H](O)C4)ccc3C(F)(F)F)c(=O)c3c2CCC3)c1` [Example 58, 2-[5-((S)-3-hydroxy-pyrrolidin-1-yl)-2-trifluoromethyl-phenyl]-4-(3-methoxy-phenyl)-2,5,6,7-tetrahydro-cyclopenta[d]pyridazin-1-one] it was greater than 7.00. `CCOc1ccc(C(F)(F)F)c(-n2nc(-c3cc(OC)cc(OC)c3)c3c(c2=O)CCC3)c1` [Example 62, 4-(3,5-dimethoxy-phenyl)-2-(5-ethoxy-2-trifluoromethyl-phenyl)-2,5,6,7-tetrahydro-cyclopenta[d]pyridazin-1-one] had a pIC50 greater than 7.00. The figure for `COc1cc(OC)cc(-c2nn(-c3cc(N4CC[C@H](O)C4)ccc3C(F)(F)F)c(=O)c3c2CCC3)c1` [Example 9, 4-(3,5-dimethoxy-phenyl)-2-[5-((S)-3-hydroxy-pyrrolidin-1-yl)-2-trifluoromethyl-phenyl]-2,5,6,7-tetrahydro-cyclopenta[d]pyridazin-1-one] is greater than 7.00; for `O=c1c2c(c(-c3cccc(Br)c3)nn1-c1cc(N3CC[C@H](O)C3)ccc1C(F)(F)F)CCC2` [Example 73, 4-(3-bromo-phenyl)-2-[5-((S)-3-hydroxy-pyrrolidin-1-yl)-2-trifluoromethyl-phenyl]-2,5,6,7-tetrahydro-cyclopenta[d]pyridazin-1-one] it is greater than 7.00. In the case of `COc1cc(OC)cc(-c2nn(-c3cc(NCCN)ccc3C(F)(F)F)c(=O)c3c2CCC3)c1` [Example 119, 2-[5-(2-amino-ethylamino)-2-trifluoromethylphenyl]-4-(3,5-dimethoxy-phenyl)-2,5,6,7-tetrahydro-cyclopenta[d]pyridazin-1-one hydrochloride] it was greater than 7.00. In the case of `O=c1c2c(c(-c3ccccc3)nn1-c1cc(N3CC[C@H](O)C3)ccc1C(F)(F)F)CCC2` [Example 66, 2-[5-((S)-3-hydroxy-pyrrolidin-1-yl)-2-trifluoromethyl-phenyl]-4-phenyl-2,5,6,7-tetrahydro-cyclopenta[d]pyridazin-1-one] it was greater than 7.00.

`COc1cc(OC)cc(-c2nn(-c3cc(N(C)C)ccc3C(F)(F)F)c(=O)c3c2CCC3)c1` [Example 81, 4-(3,5-dimethoxy-phenyl)-2-(5-dimethylamino-2-trifluoromethyl-phenyl)-2,5,6,7-tetrahydro-cyclopenta[d]pyridazin-1-one] had a pIC50 greater than 7.00. In the case of `COc1cc(OC)cc(-c2nn(-c3cc(N4CC[C@H](O)C4)ccc3C(F)(F)F)c(=O)c3c2CCN3Cc2ccccc2)c1` [Example 102, 1-benzyl-4-(3,5-dimethoxy-phenyl)-6-[5-((S)-3-hydroxy-pyrrolidin-1-yl)-2-trifluoromethyl-phenyl]-1,2,3,6-tetrahydro-pyrrolo[2,3-d]pyridazin-7-one] it was greater than 7.00; in that of `Cc1cc(-c2cnco2)cc(-c2nn(-c3cc(N4CC[C@H](O)C4)ccc3C(F)(F)F)c(=O)c3c2CC(C)(C)C3)c1` [Example 6, 2-[5-((S)-3-hydroxy-pyrrolidin-1-yl)-2-trifluoromethyl-phenyl]-6,6-dimethyl-4-(3-methyl-5-oxazol-5-yl-phenyl)-2,5,6,7-tetrahydro-cyclopenta[d]pyridazin-1-one], greater than 7.00; in that of `COc1cc(OC)cc(-c2nn(-c3cc(CO)ccc3C(F)(F)F)c(=O)c3c2CCC3)c1` [Example 149, 4-(3,5-dimethoxy-phenyl)-2-(5-hydroxymethyl-2-trifluoromethyl-phenyl)-2,5,6,7-tetrahydro-cyclopenta[d]pyridazin-1-one], greater than 7.00. For the molecule `COC(=O)c1ccc(C(F)(F)F)c(-n2nc(-c3cc(OC)cc(OC)c3)c3c(c2=O)CCC3)c1` [Example 1-9, methyl 3-[4-(3,5-dimethoxy-phenyl)-1-oxo-1,5,6,7-tetrahydro-cyclopenta[d]pyridazin-2-yl]-4-trifluoromethyl-benzoate], the negative-log IC50 (pIC50) was greater than 7.00. The figure for `COc1cc(OC)cc(-c2nn(-c3cc(NCCNS(C)(=O)=O)ccc3C(F)(F)F)c(=O)c3c2CCC3)c1` [Example 137, N-(2-{3-[4-(3,5-dimethoxy-phenyl)-1-oxo-1,5,6,7-tetrahydro-cyclopenta[d]pyridazin-2-yl]-4-trifluoromethyl-phenylamino}-ethyl)-methanesulfonamide] is greater than 7.00.

In turn, `COc1ccccc1-c1nn(-c2cc(N3CC[C@H](O)C3)ccc2C(F)(F)F)c(=O)c2c1CCC2` [Example 109, 2-[5-((S)-3-hydroxy-pyrrolidin-1-yl)-2-trifluoromethyl-phenyl]-4-(2-methoxy-phenyl)-2,5,6,7-tetrahydro-cyclopenta[d]pyridazin-1-one] had a pIC50 of 5.00 to 7.00. The figure for `COc1cc(OC)cc(-c2nn(-c3cc(N4CC[C@H](O)C4)ccc3F)c(=O)c3c2CCC3)c1` [Example 42, 4-(3,5-dimethoxy-phenyl)-2-[2-fluoro-5-((S)-3-hydroxy-pyrrolidin-1-yl)-phenyl]-2,5,6,7-tetrahydro-cyclopenta[d]pyridazin-1-one] is 5.00 to 7.00; for `COc1cc(OC)cc(-c2nn(-c3cc(NCCNC(=O)OC(C)(C)C)ccc3C(F)(F)F)c(=O)c3c2CCC3)c1` [Example 118, (2-{3-[4-(3,5-dimethoxy-phenyl)-1-oxo-1,5,6,7-tetrahydro-cyclopenta[d]pyridazin-2-yl]-4-trifluoromethyl-phenylamino}-ethyl)-carbamic acid tert-butyl ester] it is greater than 7.00.

The values above are taken from EP1953147A1, “HETEROCYCLIC COMPOUND AND MEDICINAL APPLICATION THEREOF” (priority 2005, dated 2007).
